The values below are quoted from earlier work in article PMC4163017 (ChemMedChem, 2014).

The term Kd denotes the free concentration of one partner at which half of the binding sites on the other are occupied at equilibrium, for simple one-to-one binding. The term Km denotes the concentration of substrate that gives half-maximal velocity. The kcat is the number of substrate molecules converted per active site and unit of time at saturation. In general, kcat/KM refers to the second-order rate constant that governs catalysis at low substrate concentration.

In one data set the target is IRES SLIIb RNA. The following applies: read-out: KD (dissociation constant); free peptide GGHYrFK-amide; ref [4].
Data set [1] relates to ET (luc-ubi-neo/ET) Huh7 human hepatoma cells. The following applies: 72 h, CytoTox-1, previously reported, ref [4].
The subject of data set [2] is HCV RNA replicon in ET (luc-ubi-neo/ET) Huh7 cells. The following applies: HCV cellular replicon assay; ref [4].
Data set [3] deals with 5'-fluorescein-labeled IRES SLIIb RNA. The following applies: ref [4].
Setting [4] is: fixed catalyst concentration with varying [RNA].

Values joined by “and” are separate entries in the source; they are usually repeats but may differ in a detail not shown here. Identical values can stand only once. Like-named read-outs stand apart in the source and are kept apart here.

In the case of GGHYrFK-amide, the Kd on IRES SLIIb RNA was 44 nM.

As to Cu-GGHYrFK-amide [1-Cu], in data set [1], the “Cytotoxicity TC50” value was “greater than 100 µM”. Moreover, the “Cytotoxicity TC50” value in data set [1] (listed as [GGHYrFK-amide]-Cu^2+, 1-Cu) was greater than 100000 nM. Moreover, the “activity in combination with recombinant interferon alpha-2b” value in data set [2] is “additive to slightly synergic activity”. Moreover, the Kd on IRES SLIIb RNA is 44 ± 2 nM. Moreover, in data set [3] (setting [4]), the Km was 0.85 ± 0.09 µM; the catalytic constant (kcat) is 0.00883 s⁻¹ and 0.00883 ± 0.00033 s⁻¹; the specificity constant (kcat/KM) is 10300 M⁻¹ s⁻¹. The “Turnover Number” value in data set [3] is 32.
